# Reference: patent publication US10927398B2, “Compositions for CYP450 phenotyping using saliva samples” (Concordia University, Inc., priority 2015, dated 2021)
# Several values for one entry are separate records, joined by “and”; a condition that tells them apart may be missing. Identical values can stand only once. Like-named read-outs stand apart in the source and are kept apart here.
# How the values were obtained:
# CYP3A4 [1] = biological target: T1, CYP3A4 (Homo sapiens, UniProt P08684); settings: parent and primary metabolite, CYP3A4 probe search
# T1 sequence (P08684 whole entry): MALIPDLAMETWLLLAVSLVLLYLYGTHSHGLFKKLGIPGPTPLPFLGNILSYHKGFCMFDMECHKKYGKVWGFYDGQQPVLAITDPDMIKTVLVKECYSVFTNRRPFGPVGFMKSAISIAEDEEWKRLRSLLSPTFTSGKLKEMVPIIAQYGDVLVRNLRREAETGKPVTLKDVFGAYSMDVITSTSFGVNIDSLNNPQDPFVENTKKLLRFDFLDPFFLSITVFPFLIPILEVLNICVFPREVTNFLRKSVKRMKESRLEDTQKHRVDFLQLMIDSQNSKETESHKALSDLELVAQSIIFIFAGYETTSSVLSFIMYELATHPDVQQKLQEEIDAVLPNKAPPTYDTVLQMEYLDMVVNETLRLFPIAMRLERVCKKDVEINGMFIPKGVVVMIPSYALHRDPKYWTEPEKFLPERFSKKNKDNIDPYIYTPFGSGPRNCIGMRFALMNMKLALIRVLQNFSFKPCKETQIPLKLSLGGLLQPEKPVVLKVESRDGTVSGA
# CYP1A2 = biological target: T2, CYP1A2 (Homo sapiens, UniProt P05177); test: Saliva phenotyping with caffeine probe (caffeine/paraxanthine metabolic ratio); type: in vivo
# T2 sequence (P05177 1-516): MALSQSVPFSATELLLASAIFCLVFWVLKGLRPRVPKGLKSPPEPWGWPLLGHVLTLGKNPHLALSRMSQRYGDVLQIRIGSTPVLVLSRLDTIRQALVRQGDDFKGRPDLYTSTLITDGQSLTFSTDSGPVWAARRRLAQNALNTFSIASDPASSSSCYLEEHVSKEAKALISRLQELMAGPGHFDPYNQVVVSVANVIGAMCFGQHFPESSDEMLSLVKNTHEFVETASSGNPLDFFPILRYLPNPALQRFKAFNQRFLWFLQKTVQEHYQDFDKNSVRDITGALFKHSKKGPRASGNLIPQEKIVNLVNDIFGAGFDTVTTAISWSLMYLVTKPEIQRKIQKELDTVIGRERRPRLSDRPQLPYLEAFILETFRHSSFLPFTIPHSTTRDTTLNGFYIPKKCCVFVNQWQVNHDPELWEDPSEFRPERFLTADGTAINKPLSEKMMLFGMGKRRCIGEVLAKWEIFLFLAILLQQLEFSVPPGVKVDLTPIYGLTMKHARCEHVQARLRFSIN
# plasma protein = settings: Table of Exemplary Drugs, cited from earlier work
# CYP2D6 [2] = test: Saliva phenotyping with dextromethorphan probe (dextromethorphan/dextrorphan metabolic ratio); type: in vivo, human; settings: saliva
# Description: 3. […] Record the time in your lab notebook.
# 1. […] Repeat with the other three saliva samples.
# 4. […] Repeat with the other three saliva samples.
# [3] = cited from earlier work
# [4] = cited from earlier work; remark: listed apart in the source
# CYP2D6 [5] = settings: Hou et al., saliva, cited from earlier work
# CYP3A4 [6] = biological target: T1, CYP3A4; set-up: endogenous in cells; host or cells: healthy volunteers, in vivo; saliva sampled; settings: eplerenone; cited from earlier work
# CYP2C19 [7] = tested on: CYP2C19
# CYP2C19 [8] = settings: saliva, repeat doses of Formulation #4, per subject and tablet #
# [9] = without an enteric coating or base protection; cited from earlier work
# [10] = healthy adults, dextromethorphan 30 mg
# [11] = Table of Exemplary Drugs, CYP3A4
# [12] = saliva, healthy adults, omeprazole 20 mg
# [13] = Table of Exemplary Drugs, CYP2C19
smiles,measurement,setting,value
COC(=O)[C@H]1[C@H]2[C@@H]3CC[C@@]4(CCC(=O)O4)[C@@]3(C)C[C@H]3O[C@@]23[C@@]2(C)CCC(=O)C=C2[C@@H]1O [6Beta-Hydroxy Eplerenone],concentrations in saliva,CYP3A4 [1],sufficiently high concentrations in saliva
Cn1c(=O)c2c(ncn2C)n(C)c1=O [Caffeine],complaints of individuals,"CYP1A2; caffeine doses of 200 mg, some individuals",nervousness and anxiety
same,"poor metabolizers, share of subjects (CYP1A2 phenotype)","CYP1A2; saliva, healthy primarily Caucasian adults, caffeine 200 mg",7.8%
same,PLASMA PROTEIN BINDING,plasma protein; CYP1A2,17-36% ^
COc1ccc2c(c1)[C@]13CCCC[C@@H]1[C@H](C2)N(C)CC3 [Dextromethophan],antimode (MR) marking poor metabolizers,CYP2D6 [2]; 6 hours after a 30 mg delayed release dose,27.5
same,CYP2D6 metabolic phenotype: Extensive,CYP2D6 [2]; [10],83.9%
same,CYP2D6 metabolic phenotype: Intermediate,CYP2D6 [2]; [10],9.2%
same,CYP2D6 metabolic phenotype: Poor,CYP2D6 [2]; [10],4.6%
same,CYP2D6 metabolic phenotype: Ultra-rapid,CYP2D6 [2]; [10],2.3%
same,HALF-LIFE,[3]; in vivo,1.4 to 3.9 h
same,ORAL BIOAVAILABILITY,"[4]; in vivo, po",11%
same,antimode (MR) marking poor metabolizers,"CYP2D6 [5]; healthy Chinese subjects, 3 hours after 50 mg immediate release",14
same,antimode (MR),"CYP2D6 [5]; patients with renal disease, 3 hours after 30 mg immediate release",33
"COC(=O)[C@@H]1CC2=CC(=O)CC[C@]2(C)[C@@]23O[C@@H]2C[C@@]2(C)[C@@H](CC[C@@]24CCC(=O)O4)[C@H]13 [Eplerenone (Inspra), Eplerenone]",PLASMA PROTEIN BINDING,plasma protein; CYP3A4,50%
same,Tmax,CYP3A4 [6],approximately 1.5 hours
same,HALF-LIFE,[3]; [11],3 to 6 h
same,ORAL BIOAVAILABILITY,[4]; [11],69%
COc1ccc2[nH]c([S+]([O-])Cc3ncc(C)c(OC)c3C)nc2c1 (centres unmarked) [Omeprazole],PLASMA PROTEIN BINDING,plasma protein; CYP2C19,95-96% ^
same,concentrations in saliva,"CYP2C19 [7]; over the counter formulations, some individuals",found in low concentrations in saliva of some individuals
same,CYP2C19 metabolic phenotype: Extensive,CYP2C19 [7]; [12],49.4%
same,CYP2C19 metabolic phenotype: Intermediate,CYP2C19 [7]; [12],31.3%
same,CYP2C19 metabolic phenotype: Poor,CYP2C19 [7]; [12],7.2%
same,CYP2C19 metabolic phenotype: Rapid,CYP2C19 [7]; [12],9.6%
same,CYP2C19 metabolic phenotype: Ultra-rapid,CYP2C19 [7]; [12],2.4%
same,Log10 Omeprazole/5-Hydroxy Omeprazole Metabolic Ratio,CYP2C19 [8]; time point 0.5 h,0.9 and 2.3 (2×) and 1.4 and 2.4 and 3.5 and 3.1
same,Log10 Omeprazole/5-Hydroxy Omeprazole Metabolic Ratio,CYP2C19 [8]; time point 1 h,1.2 (2×) and 0.7 (2×) and 1.5 and 1.1 and 1.3 and 1.9 and 1.4
same,Log10 Omeprazole/5-Hydroxy Omeprazole Metabolic Ratio,CYP2C19 [8]; time point 2 h,0.6 (2×) and 0.5 and 1.3 (2×) and 0.9 and 0.8 and 1.1 and 1.0 and 1.2 and 0.4 and 2.0
same,Log10 Omeprazole/5-Hydroxy Omeprazole Metabolic Ratio,CYP2C19 [8]; time point 3 h,0.4 (2×) and 0.7 and 0.9 (2×) and 0.8 and 0.6 (2×) and 1.3 (2×) and 0.05 and 0.2 and 1.6 and 1.0
same,Log10 Omeprazole/5-Hydroxy Omeprazole Metabolic Ratio,CYP2C19 [8]; time point 4 h,0.4 (2×) and 1.2 and 1.0 and 0.6 (3×) and 0.7 and 0.9 and 0.03 and 1.3
same,stability in acidic gastric fluids,[9],rapidly degrades
same,HALF-LIFE,[3]; [13],0.5 to 1 h
same,ORAL BIOAVAILABILITY,[4]; [13],30-40%
